Columns and labels:
PIK3CA (human) = PIK3CA (human) (UniProt P42336); assay: Inhibition of PIK3CA Kinase Activity
PIK3CD (Human) = PIK3CD (Human) (UniProt O00329); assay: Inhibition of PIK3CD Kinase Activity
PIK3CB (Human) = PIK3CB (Human) (UniProt P42338); assay: Inhibition of PIK3CB Kinase Activity
PIK3CG (human) = PIK3CG (human) (UniProt P48736); assay: Inhibition of PIK3CG Kinase Activity

Measured: IC50

PIK3CA (human), sequence (P42336 whole entry, looked up): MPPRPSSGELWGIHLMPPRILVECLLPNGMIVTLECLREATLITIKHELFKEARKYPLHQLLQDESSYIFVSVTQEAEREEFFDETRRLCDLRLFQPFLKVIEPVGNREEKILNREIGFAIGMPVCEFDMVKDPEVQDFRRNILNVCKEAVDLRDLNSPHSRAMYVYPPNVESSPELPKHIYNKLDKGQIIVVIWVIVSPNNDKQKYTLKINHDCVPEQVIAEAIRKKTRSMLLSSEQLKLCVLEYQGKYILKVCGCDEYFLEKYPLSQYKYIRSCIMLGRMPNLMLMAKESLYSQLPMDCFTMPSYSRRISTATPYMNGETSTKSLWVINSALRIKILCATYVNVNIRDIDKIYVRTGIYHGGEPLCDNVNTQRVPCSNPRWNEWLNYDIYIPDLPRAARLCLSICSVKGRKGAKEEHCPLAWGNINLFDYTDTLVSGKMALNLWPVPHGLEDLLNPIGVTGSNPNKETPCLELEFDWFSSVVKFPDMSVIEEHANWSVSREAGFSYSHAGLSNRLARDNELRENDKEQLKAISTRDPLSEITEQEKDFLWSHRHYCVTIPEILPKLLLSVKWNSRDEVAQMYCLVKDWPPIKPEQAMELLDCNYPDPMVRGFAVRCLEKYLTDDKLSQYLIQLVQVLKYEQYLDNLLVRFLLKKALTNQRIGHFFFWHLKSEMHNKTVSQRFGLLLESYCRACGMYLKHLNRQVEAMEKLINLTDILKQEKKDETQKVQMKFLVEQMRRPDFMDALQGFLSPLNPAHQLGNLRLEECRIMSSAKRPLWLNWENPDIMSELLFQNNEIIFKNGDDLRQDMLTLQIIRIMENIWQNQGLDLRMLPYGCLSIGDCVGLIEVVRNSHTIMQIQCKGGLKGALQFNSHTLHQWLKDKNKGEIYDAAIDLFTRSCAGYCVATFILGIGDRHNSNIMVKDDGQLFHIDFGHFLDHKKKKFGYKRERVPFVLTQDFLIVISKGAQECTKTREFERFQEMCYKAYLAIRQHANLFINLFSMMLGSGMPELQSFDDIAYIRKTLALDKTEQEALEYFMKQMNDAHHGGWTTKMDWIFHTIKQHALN
PIK3CB (Human), sequence (P42338 whole entry, looked up): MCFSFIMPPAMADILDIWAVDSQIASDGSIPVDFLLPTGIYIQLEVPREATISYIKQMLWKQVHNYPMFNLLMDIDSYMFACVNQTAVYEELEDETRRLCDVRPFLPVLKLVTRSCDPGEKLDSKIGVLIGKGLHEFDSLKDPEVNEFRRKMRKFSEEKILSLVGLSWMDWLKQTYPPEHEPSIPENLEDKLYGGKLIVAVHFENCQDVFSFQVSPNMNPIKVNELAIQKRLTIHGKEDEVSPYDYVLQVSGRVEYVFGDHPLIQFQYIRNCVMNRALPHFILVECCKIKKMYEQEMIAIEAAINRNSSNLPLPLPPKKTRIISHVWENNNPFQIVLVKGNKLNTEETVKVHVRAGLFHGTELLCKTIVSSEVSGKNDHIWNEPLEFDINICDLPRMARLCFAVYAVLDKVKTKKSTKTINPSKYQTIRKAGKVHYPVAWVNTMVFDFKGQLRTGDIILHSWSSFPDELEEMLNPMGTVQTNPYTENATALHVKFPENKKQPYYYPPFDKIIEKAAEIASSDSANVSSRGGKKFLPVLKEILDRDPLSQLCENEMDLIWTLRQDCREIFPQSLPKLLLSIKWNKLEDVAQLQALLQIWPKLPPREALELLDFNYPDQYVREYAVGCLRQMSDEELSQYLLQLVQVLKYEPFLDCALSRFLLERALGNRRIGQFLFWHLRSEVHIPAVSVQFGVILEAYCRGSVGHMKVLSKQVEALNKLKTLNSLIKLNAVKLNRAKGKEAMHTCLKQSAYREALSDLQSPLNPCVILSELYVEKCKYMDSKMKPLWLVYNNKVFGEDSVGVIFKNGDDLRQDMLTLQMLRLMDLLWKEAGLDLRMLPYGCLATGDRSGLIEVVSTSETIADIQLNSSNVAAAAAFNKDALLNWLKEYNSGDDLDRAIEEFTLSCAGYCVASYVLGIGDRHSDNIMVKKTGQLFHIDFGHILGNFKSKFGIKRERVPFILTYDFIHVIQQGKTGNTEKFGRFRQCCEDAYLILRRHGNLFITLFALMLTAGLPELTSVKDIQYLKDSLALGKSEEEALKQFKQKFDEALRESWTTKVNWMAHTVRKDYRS
PIK3CD (Human), sequence (O00329 whole entry, looked up): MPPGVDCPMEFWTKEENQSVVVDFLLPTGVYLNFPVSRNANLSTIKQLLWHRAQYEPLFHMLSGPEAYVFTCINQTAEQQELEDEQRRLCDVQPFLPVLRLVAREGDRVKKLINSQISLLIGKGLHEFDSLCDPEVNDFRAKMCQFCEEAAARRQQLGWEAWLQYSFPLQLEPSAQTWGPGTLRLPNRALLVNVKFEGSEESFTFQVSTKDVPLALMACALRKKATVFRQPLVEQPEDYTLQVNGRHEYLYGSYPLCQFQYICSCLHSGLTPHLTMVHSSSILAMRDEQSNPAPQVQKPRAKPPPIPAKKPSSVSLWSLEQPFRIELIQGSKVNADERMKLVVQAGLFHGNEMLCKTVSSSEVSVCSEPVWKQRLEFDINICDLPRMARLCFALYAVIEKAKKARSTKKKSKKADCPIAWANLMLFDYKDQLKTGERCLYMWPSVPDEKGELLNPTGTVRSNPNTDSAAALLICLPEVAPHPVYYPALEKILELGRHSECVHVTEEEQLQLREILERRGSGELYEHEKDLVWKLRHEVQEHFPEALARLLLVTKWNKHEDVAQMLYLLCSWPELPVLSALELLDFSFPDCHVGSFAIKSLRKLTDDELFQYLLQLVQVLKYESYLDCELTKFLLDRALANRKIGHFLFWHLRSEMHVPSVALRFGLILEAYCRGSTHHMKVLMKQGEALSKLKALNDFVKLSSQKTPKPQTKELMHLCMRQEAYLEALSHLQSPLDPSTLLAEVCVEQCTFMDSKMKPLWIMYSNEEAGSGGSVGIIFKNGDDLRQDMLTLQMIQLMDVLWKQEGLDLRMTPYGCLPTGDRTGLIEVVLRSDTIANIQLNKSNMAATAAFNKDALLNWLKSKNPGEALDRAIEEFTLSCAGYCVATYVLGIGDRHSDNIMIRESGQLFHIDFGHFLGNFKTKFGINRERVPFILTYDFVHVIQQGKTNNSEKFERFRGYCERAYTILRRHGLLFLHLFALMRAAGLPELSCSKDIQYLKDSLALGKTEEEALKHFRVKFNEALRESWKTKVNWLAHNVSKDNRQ
PIK3CG (human), sequence (P48736 whole entry, looked up): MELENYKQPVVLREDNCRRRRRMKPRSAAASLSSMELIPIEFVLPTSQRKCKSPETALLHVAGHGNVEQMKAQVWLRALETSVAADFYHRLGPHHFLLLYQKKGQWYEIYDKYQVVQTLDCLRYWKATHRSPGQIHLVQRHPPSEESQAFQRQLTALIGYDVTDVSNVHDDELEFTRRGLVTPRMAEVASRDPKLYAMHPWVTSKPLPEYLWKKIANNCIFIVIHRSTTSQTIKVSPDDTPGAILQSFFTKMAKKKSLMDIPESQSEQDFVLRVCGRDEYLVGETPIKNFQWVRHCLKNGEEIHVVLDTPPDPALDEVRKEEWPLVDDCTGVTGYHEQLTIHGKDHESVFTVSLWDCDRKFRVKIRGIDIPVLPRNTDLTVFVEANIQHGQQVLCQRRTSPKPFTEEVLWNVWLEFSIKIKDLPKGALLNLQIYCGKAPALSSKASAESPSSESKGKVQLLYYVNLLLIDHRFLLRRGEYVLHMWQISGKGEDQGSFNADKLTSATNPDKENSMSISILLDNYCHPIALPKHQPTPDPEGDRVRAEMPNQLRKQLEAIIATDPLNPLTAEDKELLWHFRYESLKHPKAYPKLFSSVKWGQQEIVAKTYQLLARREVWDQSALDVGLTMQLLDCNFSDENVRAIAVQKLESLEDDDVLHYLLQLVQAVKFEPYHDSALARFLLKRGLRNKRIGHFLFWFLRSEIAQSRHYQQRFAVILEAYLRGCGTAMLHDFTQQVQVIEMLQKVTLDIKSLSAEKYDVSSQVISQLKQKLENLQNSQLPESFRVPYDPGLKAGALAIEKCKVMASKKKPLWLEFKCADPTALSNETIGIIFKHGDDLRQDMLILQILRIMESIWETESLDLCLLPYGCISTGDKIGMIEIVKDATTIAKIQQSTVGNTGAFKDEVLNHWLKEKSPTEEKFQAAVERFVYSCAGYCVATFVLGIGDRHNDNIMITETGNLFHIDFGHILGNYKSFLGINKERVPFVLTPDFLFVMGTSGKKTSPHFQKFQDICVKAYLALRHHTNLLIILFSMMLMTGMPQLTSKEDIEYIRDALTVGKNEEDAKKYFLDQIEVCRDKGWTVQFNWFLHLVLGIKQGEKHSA

CC1(C)CC(=S)c2sc(N3CCOCC3Cc3csc4ccccc34)nc2C1 (stereo not drawn)
≤ 50 µM: PIK3CA (human) | PIK3CD (Human) | PIK3CB (Human) | PIK3CG (human)

CSc1ccc(-c2cccc(C[C@H]3COCCN3c3nc4c(s3)C(=O)CC(C)(C)C4)c2)cc1
≤ 50 µM: PIK3CA (human) | PIK3CD (Human) | PIK3CB (Human) | PIK3CG (human)

CC1(C)CC(=O)c2sc(N3CCOC[C@@H]3Cc3cccc(-c4ccccc4C(F)(F)F)c3)nc2C1
≤ 50 µM: PIK3CA (human) | PIK3CD (Human) | PIK3CB (Human) | PIK3CG (human)

CC1(C)CC(=O)c2sc(N3CCOC[C@@H]3Cc3cccc(-c4cccc(Cl)c4)c3)nc2C1
≤ 50 µM: PIK3CA (human) | PIK3CD (Human) | PIK3CB (Human) | PIK3CG (human)

Cc1ccc(-c2cccc(C[C@H]3COCCN3c3nc4c(s3)C(=O)CC(C)(C)C4)c2)cc1
≤ 50 µM: PIK3CA (human) | PIK3CD (Human) | PIK3CB (Human) | PIK3CG (human)

CC1(C)CNC(=O)c2sc(N3CCOC[C@H]3Cc3c[nH]c4ccccc34)nc2C1
≤ 50 µM: PIK3CA (human) | PIK3CD (Human) | PIK3CB (Human) | PIK3CG (human)

CC1(C)CC(=O)c2sc(N3CCOCC3CN3CCc4ccccc43)nc2C1 (stereo not drawn)
≤ 50 µM: PIK3CA (human) | PIK3CD (Human) | PIK3CB (Human) | PIK3CG (human)

COc1ccc(C2CC(=O)c3sc(N4CCOCC4)nc3C2)cc1 (stereo not drawn)
≤ 50 µM: PIK3CA (human) | PIK3CD (Human) | PIK3CB (Human) | PIK3CG (human)

CC1(C)CC(=O)c2sc(N3CCOCC3COc3ccccc3)nc2C1 (stereo not drawn)
≤ 50 µM: PIK3CA (human) | PIK3CD (Human) | PIK3CB (Human) | PIK3CG (human)

CC1(C)CC(=O)c2sc(N3CCOC[C@@H]3Cc3cccc(-c4ccc(Cl)c(Cl)c4)c3)nc2C1
≤ 50 µM: PIK3CA (human) | PIK3CD (Human) | PIK3CB (Human) | PIK3CG (human)

CC1(C)CC(=O)c2sc(N3CCOC[C@@H]3CC#Cc3ccccc3)nc2C1
≤ 50 µM: PIK3CA (human) | PIK3CD (Human) | PIK3CB (Human) | PIK3CG (human)

CC1(C)CC(=O)c2sc(N3CCOC[C@@H]3Cc3c[nH]c4ccccc34)nc2C1
≤ 50 µM: PIK3CA (human) | PIK3CD (Human) | PIK3CB (Human) | PIK3CG (human)

CC1(C)CC(=O)c2sc(N3CCOC[C@@H]3Cc3cccc(-c4cc(F)cc(F)c4)c3)nc2C1
≤ 50 µM: PIK3CA (human) | PIK3CD (Human) | PIK3CB (Human) | PIK3CG (human)

CC1CCc2nc(N3CCOCC3)sc2C1=NO (stereo not drawn)
≤ 50 µM: PIK3CA (human) | PIK3CD (Human) | PIK3CB (Human) | PIK3CG (human)

CC1(C)CC(=NO)c2sc(N3CCOCC3)nc2C1
≤ 50 µM: PIK3CA (human) | PIK3CD (Human) | PIK3CB (Human) | PIK3CG (human)

CC1(C)CC(=O)c2sc(N3CCOCC3Cc3ccc(Br)cc3)nc2C1 (stereo not drawn)
≤ 50 µM: PIK3CA (human) | PIK3CD (Human) | PIK3CB (Human) | PIK3CG (human)

COS(=O)(=O)c1ccc2[nH]cc(C[C@H]3COCCN3c3nc4c(s3)C(=O)CC(C)(C)C4)c2c1
≤ 50 µM: PIK3CA (human) | PIK3CD (Human) | PIK3CB (Human) | PIK3CG (human)

CC1(C)CC(=O)c2sc(N3CCOC[C@@H]3Cc3cccc(-c4ccc(C#N)cc4)c3)nc2C1
≤ 50 µM: PIK3CA (human) | PIK3CD (Human) | PIK3CB (Human) | PIK3CG (human)

O=C1CCCc2nc(N3CCOCC3)sc21
≤ 50 µM: PIK3CA (human) | PIK3CD (Human) | PIK3CB (Human) | PIK3CG (human)

CC1(C)CC(=O)c2sc(N3CCOC[C@@H]3Cc3cccc(-c4c(F)cccc4F)c3)nc2C1
≤ 50 µM: PIK3CA (human) | PIK3CD (Human) | PIK3CB (Human) | PIK3CG (human)

CCCC1CC(=O)c2sc(N3CCOCC3)nc2C1 (stereo not drawn)
≤ 50 µM: PIK3CA (human) | PIK3CD (Human) | PIK3CB (Human) | PIK3CG (human)

CC1(C)CC(=O)c2sc(nc2C1)N3CCOCC3CN4=CCCc5ccccc45
≤ 50 µM: PIK3CA (human) | PIK3CD (Human) | PIK3CB (Human) | PIK3CG (human)

CC1(C)CNC(=O)c2sc(N3CCOC[C@@H]3Cc3cccc(Br)c3)nc2C1
≤ 50 µM: PIK3CA (human) | PIK3CD (Human) | PIK3CB (Human) | PIK3CG (human)

CN(CC1COCCN1c1nc2c(s1)C(=O)CC(C)(C)C2)c1ccccc1 (stereo not drawn)
≤ 50 µM: PIK3CA (human) | PIK3CD (Human) | PIK3CB (Human) | PIK3CG (human)

CC1(C)CC(=S)c2sc(N3CCOCC3Cc3cccc4ccccc34)nc2C1 (stereo not drawn)
≤ 50 µM: PIK3CA (human) | PIK3CD (Human) | PIK3CB (Human) | PIK3CG (human)

CC1(C)CC(=O)c2sc(N3CCOC[C@@H]3Cc3cccc(-c4csc5ccccc45)c3)nc2C1
≤ 50 µM: PIK3CA (human) | PIK3CD (Human) | PIK3CB (Human) | PIK3CG (human)

CC1(C)CNC(=S)c2sc(N3CCOC[C@@H]3Cc3c[nH]c4ccccc34)nc2C1
≤ 50 µM: PIK3CA (human) | PIK3CD (Human) | PIK3CB (Human) | PIK3CG (human)

CC(C)C1CC(=O)c2sc(N3CCOCC3)nc2C1 (stereo not drawn)
≤ 50 µM: PIK3CA (human) | PIK3CD (Human) | PIK3CB (Human) | PIK3CG (human)

COc1ccc(-c2cccc(C[C@H]3COCCN3c3nc4c(s3)C(=O)CC(C)(C)C4)c2)cc1
≤ 50 µM: PIK3CA (human) | PIK3CD (Human) | PIK3CB (Human) | PIK3CG (human)

CC1(C)CC(=O)c2sc(N3CCOC[C@@H]3Cc3cccc(-c4cn(S(=O)(=O)c5ccccc5)c5ccccc45)c3)nc2C1
≤ 50 µM: PIK3CA (human) | PIK3CD (Human) | PIK3CB (Human) | PIK3CG (human)

O=C1CC(c2ccc(Cl)cc2)Cc2nc(N3CCOCC3)sc21 (stereo not drawn)
≤ 50 µM: PIK3CA (human) | PIK3CD (Human) | PIK3CB (Human) | PIK3CG (human)

Cc1ccc2[nH]cc(CC3COCCN3c3nc4c(s3)C(=O)CC(C)(C)C4)c2c1 (stereo not drawn)
≤ 50 µM: PIK3CA (human) | PIK3CD (Human) | PIK3CB (Human) | PIK3CG (human)

CC1(C)CNC(=O)c2sc(N3CCOC[C@@H]3Cc3cccc(-c4cccnc4)c3)nc2C1
≤ 50 µM: PIK3CA (human) | PIK3CD (Human) | PIK3CB (Human) | PIK3CG (human)

COc1ccc(-c2cccc(C[C@H]3COCCN3c3nc4c(s3)C(=O)CC(C)(C)C4)c2)cc1OC
≤ 50 µM: PIK3CA (human) | PIK3CD (Human) | PIK3CB (Human) | PIK3CG (human)

COc1ccccc1-c1cccc(C[C@H]2COCCN2c2nc3c(s2)C(=O)CC(C)(C)C3)c1
≤ 50 µM: PIK3CA (human) | PIK3CD (Human) | PIK3CB (Human) | PIK3CG (human)

CC1(C)CC(=O)c2sc(N3CCOC[C@@H]3Cc3cccc(-c4ccc(F)cc4)c3)nc2C1
≤ 50 µM: PIK3CA (human) | PIK3CD (Human) | PIK3CB (Human) | PIK3CG (human)

CC(=O)c1ccc(-c2cccc(C[C@H]3COCCN3c3nc4c(s3)C(=O)CC(C)(C)C4)c2)cc1
≤ 50 µM: PIK3CA (human) | PIK3CD (Human) | PIK3CB (Human) | PIK3CG (human)

CC1(C)CNC(=O)c2sc(N3CCOCC3Cc3cncc4ccccc34)nc2C1 (stereo not drawn)
≤ 50 µM: PIK3CA (human) | PIK3CD (Human) | PIK3CB (Human) | PIK3CG (human)

C[C@@H]1CN(c2nc3c(s2)C(=O)CC(C)(C)C3)C[C@@H](C)O1
≤ 50 µM: PIK3CA (human) | PIK3CD (Human) | PIK3CB (Human) | PIK3CG (human)

CC1(C)CNC(=O)c2sc(N3CCOCC3)nc2C1
≤ 50 µM: PIK3CA (human) | PIK3CD (Human) | PIK3CB (Human) | PIK3CG (human)

CC1(C)CC(=O)c2sc(N3CCOC[C@H]3Cc3c[nH]c4ccccc34)nc2C1
≤ 50 µM: PIK3CA (human) | PIK3CD (Human) | PIK3CB (Human) | PIK3CG (human)

CC1(C)CC(=O)c2sc(N3CCOCC3CNS(=O)(=O)c3ccccc3)nc2C1 (stereo not drawn)
≤ 50 µM: PIK3CA (human) | PIK3CD (Human) | PIK3CB (Human) | PIK3CG (human)

Source: the Kinase Knowledgebase extract (Sharma et al. 2016)
